Columns and labels:
Assay type in all cases: physicochemical
[1] = Density and magnetic susceptibility of paramagnetic ionic liquids from MagLev levitation height of density standard beads; settings: for ρ (density) / χ (magnetic susceptibility): calculated from levitation height vs density of standard beads (Mirica et al. JACS 2009 method); for Accessible Density Range: range of densities that can be levitated in MagLev
Description: The density of a diamagnetic object was determined, from its levitation height, by suspending the object in a container filled with paramagnetic ionic liquid and placed the container between two NdFeB magnets oriented with like poles facing each other (see FIG. 5). Before using the paramagnetic ionic liquids as liquids for density based measurement using Maglev, the density and magnetic susceptibility of each paramagnetic ionic liquid was first determined (examples shown in FIG. 6). These properties can be calculated from a plot of the levitation height of objects with known density versus their density using previously disclosed methods. See, e.g., Mirica et al. JACS, 2009, 10049. See also, FIGS. 7-9, Table 1.

[2] = Glass transition temperature by differential scanning calorimetry (DSC); settings: cooling from 20° C. to −75° C. at 10° C./minute, then heating
Description: Except for [BMIM][FeCl4], [GlyC2][FeCl2][BMIM]2[MnCl4], all paramagnetic ionic liquids were synthesized by mixing appropriate equivalents of the halide starting materials in methanol and allowed to stir overnight. The solvent was removed in vacuo affording paramagnetic ionic liquids in nearly quantitative yield. The synthesis of [BMIM][FeCl4], [GlyC2][FeCl4] was carried out by following reported literature procedure (Satoshi Hayashi and Hiro-o Hamaguchi Chemistry Letters 2004, 33 (12) 1590-1591; Masanari Okuno and Hiro-o Hamaguchi Applied Physics Letters 2006, 89, 132506). Specifically, BMIM Cl and FeCl3 were mixed together in a 1:1 molar ratio and stirred under nitrogen atmosphere. After stirring for 10 minutes at room temperature, BMIM FeCl4 was obtained as a brown colored ionic liquid. This procedure was also used for BMIM MnCl4 except that the mixture was gently heated at 60° C. for 5 minutes. The synthesized paramagnetic ionic liquids were characterized using elemental analysis (Robertson Microlit Labs, NJ). […]
The glass transition temperatures and melting points of the synthesized paramagnetic ionic liquids were determined using differential scanning calorimetry (DSC) (see FIG. 3). […]

[3] = Thermal stability by thermal gravimetric analysis (TGA)
Description: The change in weight as a function of temperature was monitored by heating the sample from room temperature to 700° C. at a ramp rate of 10° C./min.
Except for [BMIM][FeCl4], [GlyC2][FeCl2][BMIM]2[MnCl4], all paramagnetic ionic liquids were synthesized by mixing appropriate equivalents of the halide starting materials in methanol and allowed to stir overnight. The solvent was removed in vacuo affording paramagnetic ionic liquids in nearly quantitative yield. The synthesis of [BMIM][FeCl4], [GlyC2][FeCl4] was carried out by following reported literature procedure (Satoshi Hayashi and Hiro-o Hamaguchi Chemistry Letters 2004, 33 (12) 1590-1591; Masanari Okuno and Hiro-o Hamaguchi Applied Physics Letters 2006, 89, 132506). Specifically, BMIM Cl and FeCl3 were mixed together in a 1:1 molar ratio and stirred under nitrogen atmosphere. After stirring for 10 minutes at room temperature, BMIM FeCl4 was obtained as a brown colored ionic liquid. This procedure was also used for BMIM MnCl4 except that the mixture was gently heated at 60° C. for 5 minutes. The synthesized paramagnetic ionic liquids were characterized using elemental analysis (Robertson Microlit Labs, NJ). The glass transition temperature (Tg), melting point (Tm), and decomposition temperatures (Tdec) of the synthesized paramagnetic ionic liquids were obtained respectively using dynamic scanning calorimetry (DSC), and thermal gravimetric analysis (TGA).
The thermal stability of the paramagnetic ionic liquids was measured using thermal gravimetric analysis (TGA). Most paramagnetic ionic liquids were thermally stable to at least 300° C. (see FIG. 4). The melting points (Tm), glass transition (Tg) and decomposition temperatures (Tdec) of the synthesized paramagnetic ionic liquids is provided below.

Row | ρ (density) [1] [g/mL] | χ (magnetic susceptibility) [1] | Accessible Density Range [1] [g/mL] | Tg (glass transition temperature) [2] [°C] | Tdec (decomposition temperature) [3] [°C] | magnetic susceptibility (χ) [1] | Compound
1 | – | – | – | −69 | – | – | CCCCCCCCCCCCCC[P+](CCCCCC)(CCCCCC)CCCCCC.CCCCCCCCCCCCCC[P+](CCCCCC)(CCCCCC)CCCCCC.[Cl][Mn-2]([Cl])([Cl])[Cl] [[PR4]2[MnCl4]]
2 | 1.39 | 8.28 ×10^−4 | 0.96 to 1.83 | – | – | – | CCCCn1cc[n+](C)c1.[Cl][Fe-]([Cl])([Cl])[Cl] [[BMIM] [FeCl4]]
3 | 1.29 | 5.40 ×10^−4 | 1.30 to 1.35 | – | – | – | CCCC[n+]1ccn(C)c1.CCCC[n+]1ccn(C)c1.CCCC[n+]1ccn(C)c1.[Cl][Ho-3]([Cl])([Cl])([Cl])([Cl])[Cl] [[BMIM]3 [HoCl6]]
4 | 1.24 | 2.75 ×10^−4 | 1.09 to 1.37 | −40 | 300 | – | CCCC[n+]1ccn(C)c1.CCCC[n+]1ccn(C)c1.[Cl][Mn-2]([Cl])([Cl])[Cl] [[BMIM]2 [MnCl4]]
5 | 1.37 | 12.37 ×10^−4 | 0.72 to 2.01 | – | 350 | 12.4 ·10^−4 | CCCCn1cc[n+](C)c1.CCCCn1cc[n+](C)c1.CCCCn1cc[n+](C)c1.[Cl][Dy-3]([Cl])([Cl])([Cl])([Cl])[Cl] [[BMIM]3 [DyCl6]]

Second part, the compound before the results:

Row | Compound | ρ (density) [1] [g/mL] | χ (magnetic susceptibility) [1] | Accessible Density Range [1] [g/mL] | Tg (glass transition temperature) [2] [°C] | Tdec (decomposition temperature) [3] [°C] | magnetic susceptibility (χ) [1]
6 | COC(=O)[C@H](C)[NH3+].[Cl][Fe-]([Cl])([Cl])[Cl] [[AlaC1] [FeCl4]] | 1.52 | 6.62 ×10^−4 | 1.15 to 1.93 | – | – | –
7 | COC(=O)[C@H](C)[NH3+].COC(=O)[C@H](C)[NH3+].COC(=O)[C@H](C)[NH3+].[Cl][Ho-3]([Cl])([Cl])([Cl])([Cl])[Cl] [[AlaC1]3 [HoCl6]] | 1.42 | 9.70 ×10^−4 | 0.92 to 1.93 | – | – | –
8 | COC(=O)[C@H](C)[NH3+].COC(=O)[C@H](C)[NH3+].[Cl][Mn-2]([Cl])([Cl])[Cl] [[AlaC1]2 [MnCl4]] | 1.24 | 11.80 ×10^−4 | 0.63 to 1.86 | – | – | –
9 | CCCCCCCC[N+](C)(CCCCCCCC)CCCCCCCC.CCCCCCCC[N+](C)(CCCCCCCC)CCCCCCCC.[Cl][Mn-2]([Cl])([Cl])[Cl] [[Aliq]2 [MnCl4]] | 0.96 | 1.85 ×10^−4 | 0.90 to 100 | – | – | –
10 | COC(=O)[C@H](C)[NH3+].COC(=O)[C@H](C)[NH3+].COC(=O)[C@H](C)[NH3+].[Cl][Gd-3]([Cl])([Cl])([Cl])([Cl])[Cl] [[AlaC1]3 [GdCl6]] | 1.31 | 8.24 ×10^−4 | 0.89 to 1.74 | – | – | –
11 | CCCC[n+]1ccn(C)c1C.CCCC[n+]1ccn(C)c1C.CCCC[n+]1ccn(C)c1C.[Cl][Dy-3]([Cl])([Cl])([Cl])([Cl])[Cl] [[BDMIM]3 [DyCl6]] | 1.23 | 3.49 ×10^−4 | 1.05 to 1.41 | – | – | –
12 | CCCCCCCC[N+](C)(CCCCCCCC)CCCCCCCC.CCCCCCCC[N+](C)(CCCCCCCC)CCCCCCCC.CCCCCCCC[N+](C)(CCCCCCCC)CCCCCCCC.[Br][Ho-3]([Br])([Br])([Br])([Br])[Br] [[Aliq]3 [HoBr6]] | 1.08 | 1.37 ×10^−4 | 1.01 to 1.15 | – | 250 | –
13 | COC(=O)[C@H](C)[NH3+].COC(=O)[C@H](C)[NH3+].COC(=O)[C@H](C)[NH3+].[Cl][Dy-3]([Cl])([Cl])([Cl])([Cl])[Cl] [[AlaC1]3 [DyCl6]] | 1.41 | 9.58 ×10^−4 | 0.91 to 1.91 | – | – | –
14 | CCCCCCCC[N+](C)(CCCCCCCC)CCCCCCCC.CCCCCCCC[N+](C)(CCCCCCCC)CCCCCCCC.CCCCCCCC[N+](C)(CCCCCCCC)CCCCCCCC.[Cl][Ho-3]([Cl])([Cl])([Cl])([Cl])[Cl] [[Aliq]3 [HoCl6]] | 0.95 | 1.94 ×10^−4 | 0.85 to 1.05 | – | – | –
15 | CCCCCCCC[N+](C)(CCCCCCCC)CCCCCCCC.CCCCCCCC[N+](C)(CCCCCCCC)CCCCCCCC.CCCCCCCC[N+](C)(CCCCCCCC)CCCCCCCC.[Cl][Gd-3]([Cl])([Cl])([Cl])([Cl])[Cl] [[Aliq]3 [GdCl6]] | 0.97 | 0.55 ×10^−4 | 0.95 to 0.99 | – | – | –

Source: US20150135829A1, “Levitation of Materials in Paramagnetic Ionic Liquids” (Presidents and Fellows of Harvard College, priority 2012, published 2015)
